Results published in PubChem BioAssay AID1259407 (Chemical Carcinogenesis Research Information System (CCRIS), 2018).
The source made the active and inactive calls. How the calls were made is not given here.

Tested on: CCRIS mutagenicity, Ames/micronucleus/aberration tests
Assay: CCRIS mutagenicity studies
[1] = Test System: AMES SALMONELLA TYPHIMURIUM, Strain/Indicator: TA98, Metabolic Activation: NONE, Method: PREINCUBATION
[2] = Test System: AMES SALMONELLA TYPHIMURIUM, Strain/Indicator: TA98, Metabolic Activation: NONE, Method: STANDARD PLATE
[3] = Test System: AMES SALMONELLA TYPHIMURIUM, Strain/Indicator: TA98, Metabolic Activation: RAT, LIVER, S-9, AROCLOR 1254, Method: STANDARD PLATE
[4] = Test System: AMES SALMONELLA TYPHIMURIUM, Strain/Indicator: TA100, Metabolic Activation: NONE, Method: PREINCUBATION
[5] = Test System: AMES SALMONELLA TYPHIMURIUM, Strain/Indicator: TA100, Metabolic Activation: NONE, Method: STANDARD PLATE
[6] = Test System: AMES SALMONELLA TYPHIMURIUM, Strain/Indicator: TA100, Metabolic Activation: RAT, LIVER, S-9, AROCLOR 1254, Method: STANDARD PLATE

Question: With `NCCNCCO` as the compound, how does the mutagenic call (Test System: AMES SALMONELLA TYPHIMURIUM, Strain/Indicator: TA98, Metabolic Activation: HAMSTER, LIVER, S-9, AROCLOR 1254 (10%), Method: PREINCUBATION) read?
Answer: inactive; negative

Question: And the mutagenic call [1]?
Answer: inactive; negative

Question: And the mutagenic call [2]?
Answer: inactive; negative

Question: What about the mutagenic call (Test System: AMES SALMONELLA TYPHIMURIUM, Strain/Indicator: TA98, Metabolic Activation: RAT, LIVER, S-9, AROCLOR 1254 (10%), Method: PREINCUBATION) of the same compound?
Answer: inactive; negative

Question: And the mutagenic call [3]?
Answer: inactive; negative

Question: What about the mutagenic call (Test System: AMES SALMONELLA TYPHIMURIUM, Strain/Indicator: TA98, Metabolic Activation: RAT, LIVER, S-9, PCB, Method: PREINCUBATION) of the same compound?
Answer: inactive; negative

Question: And the mutagenic call (Test System: AMES SALMONELLA TYPHIMURIUM, Strain/Indicator: TA100, Metabolic Activation: HAMSTER, LIVER, S-9, AROCLOR 1254 (10%), Method: PREINCUBATION)?
Answer: inactive; negative

Question: What about the mutagenic call [4] of the same compound?
Answer: inactive; negative

Question: What about the mutagenic call [5] of the same compound?
Answer: inactive; negative

Question: What about the mutagenic call (Test System: AMES SALMONELLA TYPHIMURIUM, Strain/Indicator: TA100, Metabolic Activation: RAT, LIVER, S-9, AROCLOR 1254 (10%), Method: PREINCUBATION) of the same compound?
Answer: inactive; negative

Question: And the mutagenic call [6]?
Answer: inactive; negative

Question: And the mutagenic call (Test System: AMES SALMONELLA TYPHIMURIUM, Strain/Indicator: TA100, Metabolic Activation: RAT, LIVER, S-9, PCB, Method: PREINCUBATION)?
Answer: inactive; negative

Question: And the mutagenic call (Test System: AMES SALMONELLA TYPHIMURIUM, Strain/Indicator: TA1535, Metabolic Activation: HAMSTER, LIVER, S-9, AROCLOR 1254 (10 OR 12%), Method: PREINCUBATION)?
Answer: active; positive

Question: What about the mutagenic call (Test System: AMES SALMONELLA TYPHIMURIUM, Strain/Indicator: TA1535, Metabolic Activation: NONE, Method: PREINCUBATION) of the same compound?
Answer: inactive; negative

Question: And the mutagenic call (Test System: AMES SALMONELLA TYPHIMURIUM, Strain/Indicator: TA1535, Metabolic Activation: NONE, Method: STANDARD PLATE)?
Answer: inactive; negative

Question: What about the mutagenic call (Test System: AMES SALMONELLA TYPHIMURIUM, Strain/Indicator: TA1535, Metabolic Activation: RAT, LIVER, S-9, AROCLOR 1254 (10%), Method: PREINCUBATION) of the same compound?
Answer: active; positive

Question: And the mutagenic call (Test System: AMES SALMONELLA TYPHIMURIUM, Strain/Indicator: TA1535, Metabolic Activation: RAT, LIVER, S-9, AROCLOR 1254, Method: STANDARD PLATE)?
Answer: inactive; negative

Question: And the mutagenic call (Test System: AMES SALMONELLA TYPHIMURIUM, Strain/Indicator: TA1537, Metabolic Activation: HAMSTER, LIVER, S-9, AROCLOR 1254 (10%), Method: PREINCUBATION)?
Answer: inactive; negative

Question: What about the mutagenic call (Test System: AMES SALMONELLA TYPHIMURIUM, Strain/Indicator: TA1537, Metabolic Activation: NONE, Method: PREINCUBATION) of the same compound?
Answer: inactive; negative

Question: What about the mutagenic call (Test System: AMES SALMONELLA TYPHIMURIUM, Strain/Indicator: TA1537, Metabolic Activation: NONE, Method: STANDARD PLATE) of the same compound?
Answer: inactive; negative

Question: And the mutagenic call (Test System: AMES SALMONELLA TYPHIMURIUM, Strain/Indicator: TA1537, Metabolic Activation: RAT, LIVER, S-9, AROCLOR 1254 (10%), Method: PREINCUBATION)?
Answer: inactive; negative

Question: And the mutagenic call (Test System: AMES SALMONELLA TYPHIMURIUM, Strain/Indicator: TA1537, Metabolic Activation: RAT, LIVER, S-9, AROCLOR 1254, Method: STANDARD PLATE)?
Answer: inactive; negative

Question: And the mutagenic call (Test System: AMES SALMONELLA TYPHIMURIUM, Strain/Indicator: TA1538, Metabolic Activation: NONE, Method: STANDARD PLATE)?
Answer: inactive; negative

Question: And the mutagenic call (Test System: AMES SALMONELLA TYPHIMURIUM, Strain/Indicator: TA1538, Metabolic Activation: RAT, LIVER, S-9, AROCLOR 1254, Method: STANDARD PLATE)?
Answer: inactive; negative

Question: And the mutagenic call (Test System: CHINESE HAMSTER OVARY, Strain/Indicator: CHO (HGPRT)/6-THIOGUANINE, Metabolic Activation: NONE)?
Answer: inactive; negative

Question: And the mutagenic call (Test System: CHINESE HAMSTER OVARY, Strain/Indicator: CHO (HGPRT)/6-THIOGUANINE, Metabolic Activation: RAT, LIVER, S-9, AROCLOR 1254)?
Answer: inactive; negative

Question: And the mutagenic call (Test System: UDS RAT HEPATOCYTES, Strain/Indicator: THY INCORP, Metabolic Activation: NONE, Method: SCINTILLATION SPECTROMETRY)?
Answer: inactive; negative

Question: Which mutagenic call (Test System: AMES SALMONELLA TYPHIMURIUM, Strain/Indicator: TA100, Metabolic Activation: RAT, LIVER, S-9, PHENOBARBITAL AND 5,6-BENZOFLAVONE, Method: PREINCUBATION) does the source give for `Fc1cnc2ccc3ccccc3c2c1` here?
Answer: active; positive

Question: For `Nc1ccc([N+](=O)[O-])cc1[N+](=O)[O-]`, which mutagenic call (End Point: IN VITRO CHROMOSOMAL ABERRATIONS, Test System: CHL CELLS, Metabolic Activation: NONE) is on record?
Answer: inactive; negative

Question: What about the mutagenic call (End Point: IN VITRO CHROMOSOMAL ABERRATIONS, Test System: CHL CELLS, Metabolic Activation: RAT, LIVER, S-9, SODIUM PHENOBARBITAL AND 5,6-BENZOFLAVONE) of the same compound?
Answer: active; positive (structural changes)

Question: What about the mutagenic call (End Point: IN VITRO CHROMOSOMAL ABERRATIONS, Test System: HUMAN PERIPHERAL LYMPHOCYTES, Metabolic Activation: NONE) of the same compound?
Answer: active; positive

Question: And the mutagenic call [1]?
Answer: active; positive

Question: What about the mutagenic call [2] of the same compound?
Answer: active; positive

Question: What about the mutagenic call [3] of the same compound?
Answer: active; positive

Question: What about the mutagenic call (Test System: AMES SALMONELLA TYPHIMURIUM, Strain/Indicator: TA98, Metabolic Activation: RAT, LIVER, S-9, KANECHLOR 500, Method: PREINCUBATION) of the same compound?
Answer: active; positive

Question: And the mutagenic call [4]?
Answer: active; positive

Question: And the mutagenic call [5]?
Answer: inactive; negative

Question: What about the mutagenic call [6] of the same compound?
Answer: inactive; negative

Question: What about the mutagenic call (Test System: AMES SALMONELLA TYPHIMURIUM, Strain/Indicator: TA100, Metabolic Activation: RAT, LIVER, S-9, KANECHLOR 500, Method: PREINCUBATION) of the same compound?
Answer: active; positive

Question: And the mutagenic call (Test System: UDS RODENT HEPATOCYTES, Strain/Indicator: THY INCORP (NON-S-PHASE), Metabolic Activation: NONE, Method: AUTORADIOGRAPHY)?
Answer: inactive; negative
